Measured values taken from patent US20240024273A1, “TOPICAL ADMINISTRATION OF 2-(DIETHYLAMINO)ETHYL 2-(4-ISOBUTYLPHENYL)PROPRIONATE FOR TREATMENT OF DISEASES” (TECHFIELDS PHARMA CO., LTD., priority 2020, published 2024).

System: osteoarthritis of the knee
Test: Second Phase 2 study: WOMAC difficulty performing daily activities (functional ability) subscale score
Assay type: in vivo, human
From the text: This is a Phase 2, multicenter, randomized, double blind (within dose), Ibuprofen-placebo controlled, parallel group, dose range finding study to evaluate the efficacy, safety, and PK of 2-(diethylamino)ethyl 2-(4-isobutylphenyl)propionate spray in adult subjects with clinically symptomatic OA of the knee. For subjects with bilateral knee pain, both knees will be treated, but the most symptomatic knee (ie, the most painful knee as measured by the Western Ontario and McMaster University Osteoarthritis Index [WOMAC® 3.1] pain subscale score at Screening) will be designated as the target knee for efficacy analyses. For subjects with unilateral knee pain, only the symptomatic (target) knee will be treated.
The VAS version of the WOMAC will be used for the Primary and Secondary Efficacy Endpoints. Efficacy endpoints will be assessed at Screening and Baseline (Day 1) and at the Week 2, Week 4, Week 8, and Week 12/EOS visits.
4.9.2. Secondary Efficacy Endpoints: • 1. Change from Baseline in the WOMAC (VAS) pain subscale score for the target knee at 2, 8, and 12 weeks of treatment; • 2. Change from Baseline in the WOMAC (VAS) stiffness subscale scores for the target knee and WOMAC (VAS) functional ability subscale scores at 2, 4, 8, and 12 weeks of treatment; • 3. Change from Baseline in the overall WOMAC (VAS) score at 2, 4, 8, and 12 weeks of treatment; • 4. Subject's global assessment of disease status of the target knee at 2, 4, 8, and 12 weeks of treatment; • 5. Subject's global assessment of response to therapy of the target knee at 2, 4, 8, and 12 weeks of treatment; • 6. Amount of rescue medication (acetaminophen) consumed per day for target knee pain.
The Secondary Efficacy Endpoints, change from Baseline in the WOMAC subscale scores for pain, stiffness, and functional ability, and overall WOMAC score at 2, 4, 8, and 12 weeks of treatment, will be analyzed using the same methods as for the Primary Efficacy Endpoint.

[1] = 17.5 mg/knee BID, Week 12, first 130 subjects
[2] = Week 12, 4.375 mg/knee BID (n = 23), first 130 subjects
[3] = Week 12, 8.75 mg/knee BID (n = 24), first 130 subjects
[4] = Week 12, 17.5 mg/knee BID (n = 19), first 130 subjects
[5] = all subjects, 4.375 mg/knee BID, n = 49, Week 12
[6] = all subjects, 8.75 mg/knee BID, n = 54, Week 12
[7] = all subjects, 17.5 mg/knee BID, n = 52, Week 12
[8] = Week 12, oral, 3 × 400 mg (n = 20), first 130 subjects
[9] = all subjects, Oral Ibuprofen 3 × 400 mg, n = 48, Week 12

Structure (SMILES): CCN(CC)CCOC(=O)C(C)c1ccc(CC(C)C)cc1 (centres unmarked) [2-(diethylamino)ethyl 2-(4-isobutylphenyl)propionate]
- WOMAC functional ability, difference from oral ibuprofen [1]: −15.6
- WOMAC functional ability, difference from placebo [1]: −19.1
- WOMAC Difficulty Performing Daily Activities Subscale Score, Day 1, Avg. (Avg. of all patients (blinded), Low Dose (2 spray/knee, 8.75 mg/knee) Cohort, Day 1): 60.4
- WOMAC Difficulty Performing Daily Activities Subscale Score, Follow-up, Avg. (Avg. of all patients (blinded), Low Dose (2 spray/knee, 8.75 mg/knee) Cohort, Follow-up): 40.1
- WOMAC Difficulty Performing Daily Activities Subscale Score, Week 2, Avg. (Avg. of all patients (blinded), Low Dose (2 spray/knee, 8.75 mg/knee) Cohort, Week 2): 49.8
- WOMAC Difficulty Performing Daily Activities Subscale Score, Week 4, Avg. (Avg. of all patients (blinded), Low Dose (2 spray/knee, 8.75 mg/knee) Cohort, Week 4): 44.0
- WOMAC Difficulty Performing Daily Activities Subscale Score, Week 8, Avg. (Avg. of all patients (blinded), Low Dose (2 spray/knee, 8.75 mg/knee) Cohort, Week 8): 41.1
- WOMAC Difficulty Performing Daily Activities Subscale Score, Week 12, Avg. (Avg. of all patients (blinded), Low Dose (2 spray/knee, 8.75 mg/knee) Cohort, Week 12): 39.8
- WOMAC Difficulty Performing Daily Activities Subscale Scores, Baseline (LS Mean) (4.375 mg/knee BID (n = 23), first 130 subjects): 60.2 mm
- WOMAC Difficulty Performing Daily Activities Subscale Scores, Baseline (LS Mean) (8.75 mg/knee BID (n = 24), first 130 subjects): 61.6 mm
- WOMAC Difficulty Performing Daily Activities Subscale Scores, Baseline (LS Mean) (17.5 mg/knee BID (n = 19), first 130 subjects): 63.9 mm
- WOMAC Difficulty Performing Daily Activities Subscale Scores, % of improvement from Oral Ibuprofen [2]: −10.9%
- WOMAC Difficulty Performing Daily Activities Subscale Scores, % of improvement from Placebo [2]: −14.2%
- WOMAC Difficulty Performing Daily Activities Subscale Scores, % of improvement from baseline [2]: −43.9%
- WOMAC Difficulty Performing Daily Activities Subscale Scores, Changes from Baseline (LS Mean) [2]: −26.4 mm
- WOMAC Difficulty Performing Daily Activities Subscale Scores, Different from oral ibuprofen (LS Mean) [2]: −4.8 mm
- WOMAC Difficulty Performing Daily Activities Subscale Scores, Different from placebo (LS Mean) [2]: −8.3 mm
- WOMAC Difficulty Performing Daily Activities Subscale Scores, Week 12 (LS Mean) [2]: 33.8 mm
- WOMAC Difficulty Performing Daily Activities Subscale Scores, % of improvement from Oral Ibuprofen [3]: −12.5%
- WOMAC Difficulty Performing Daily Activities Subscale Scores, % of improvement from Placebo [3]: −15.9%
- WOMAC Difficulty Performing Daily Activities Subscale Scores, % of improvement from baseline [3]: −45.6%
- WOMAC Difficulty Performing Daily Activities Subscale Scores, Changes from Baseline (LS Mean) [3]: −28.1 mm
- WOMAC Difficulty Performing Daily Activities Subscale Scores, Different from oral ibuprofen (LS Mean) [3]: −6.6 mm
- WOMAC Difficulty Performing Daily Activities Subscale Scores, Different from placebo (LS Mean) [3]: −10.0 mm
- WOMAC Difficulty Performing Daily Activities Subscale Scores, Week 12 (LS Mean) [3]: 33.4 mm
- WOMAC Difficulty Performing Daily Activities Subscale Scores, % of improvement from Oral Ibuprofen [4]: −25.2%
- WOMAC Difficulty Performing Daily Activities Subscale Scores, % of improvement from Placebo [4]: −28.5%
- WOMAC Difficulty Performing Daily Activities Subscale Scores, % of improvement from baseline [4]: −58.2%
- WOMAC Difficulty Performing Daily Activities Subscale Scores, Changes from Baseline (LS Mean) [4]: −37.2 mm
- WOMAC Difficulty Performing Daily Activities Subscale Scores, Different from oral ibuprofen (LS Mean) [4]: −15.6 mm
- WOMAC Difficulty Performing Daily Activities Subscale Scores, Different from placebo (LS Mean) [4]: −19.1 mm
- WOMAC Difficulty Performing Daily Activities Subscale Scores, Week 12 (LS Mean) [4]: 26.7 mm
- WOMAC Difficulty Performing Daily Activities Subscale Scores, % of improvement from Oral Ibuprofen [5]: −1.3%
- WOMAC Difficulty Performing Daily Activities Subscale Scores, % of improvement from Placebo [5]: −5.6%
- WOMAC Difficulty Performing Daily Activities Subscale Scores, % of improvement from baseline [5]: −42.8%
- WOMAC Difficulty Performing Daily Activities Subscale Scores, Changes from Baseline (LS Mean) [5]: −25.4 mm
- WOMAC Difficulty Performing Daily Activities Subscale Scores, Week 12 (LS Mean) [5]: 33.9 mm
- WOMAC Difficulty Performing Daily Activities Subscale Scores, % of improvement from Oral Ibuprofen [6]: −4.6%
- WOMAC Difficulty Performing Daily Activities Subscale Scores, % of improvement from Placebo [6]: −8.9%
- WOMAC Difficulty Performing Daily Activities Subscale Scores, % of improvement from baseline [6]: −46.1%
- WOMAC Difficulty Performing Daily Activities Subscale Scores, Changes from Baseline (LS Mean) [6]: −27.9 mm
- WOMAC Difficulty Performing Daily Activities Subscale Scores, Different from oral ibuprofen (LS Mean) [6]: −2.7 mm
- WOMAC Difficulty Performing Daily Activities Subscale Scores, Different from placebo (LS Mean) [6]: −6.0 mm
- WOMAC Difficulty Performing Daily Activities Subscale Scores, Week 12 (LS Mean) [6]: 32.6 mm
- WOMAC Difficulty Performing Daily Activities Subscale Scores, % of improvement from Oral Ibuprofen [7]: −11.0%
- WOMAC Difficulty Performing Daily Activities Subscale Scores, % of improvement from Placebo [7]: −15.3%
- WOMAC Difficulty Performing Daily Activities Subscale Scores, % of improvement from baseline [7]: −52.5%
- WOMAC Difficulty Performing Daily Activities Subscale Scores, Changes from Baseline (LS Mean) [7]: −31.4 mm
- WOMAC Difficulty Performing Daily Activities Subscale Scores, Different from placebo (LS Mean) [7]: −9.5 mm
- WOMAC Difficulty Performing Daily Activities Subscale Scores, Week 12 (LS Mean) [7]: 28.3 mm

Structure (SMILES): CC(C)Cc1ccc(C(C)C(=O)O)cc1 (centres unmarked) [Ibuprofen, 2-(4-isobutylphenyl)propionic acid, reference compound]
- WOMAC Difficulty Performing Daily Activities Subscale Scores, Baseline (LS Mean) (oral, 3 × 400 mg (n = 20), first 130 subjects): 65.5 mm
- WOMAC Difficulty Performing Daily Activities Subscale Scores, % of improvement from Placebo [8]: −3.3%
- WOMAC Difficulty Performing Daily Activities Subscale Scores, % of improvement from baseline [8]: −33.0%
- WOMAC Difficulty Performing Daily Activities Subscale Scores, Changes from Baseline (LS Mean) [8]: −21.6 mm
- WOMAC Difficulty Performing Daily Activities Subscale Scores, Different from placebo (LS Mean) [8]: −3.5 mm
- WOMAC Difficulty Performing Daily Activities Subscale Scores, Week 12 (LS Mean) [8]: 43.9 mm
- WOMAC Difficulty Performing Daily Activities Subscale Scores, % of improvement from Placebo [9]: −4.3%
- WOMAC Difficulty Performing Daily Activities Subscale Scores, % of improvement from baseline [9]: −41.5%
- WOMAC Difficulty Performing Daily Activities Subscale Scores, Changes from Baseline (LS Mean) [9]: −25.3 mm
- WOMAC Difficulty Performing Daily Activities Subscale Scores, Week 12 (LS Mean) [9]: 35.7 mm
- WOMAC Functional Ability, difference vs. Placebo (all subjects, Oral Ibuprofen 3 × 400 mg, n = 48 vs. Placebo n = 48): −3.4 mm
- WOMAC functional ability, difference from placebo (oral 3×400 mg, first 130 subjects): −3.5 mm
